For 22 compounds, T/C results are on record in PubChem BioAssay AID328 (DTP/NCI, 2004).

Several values for one entry are separate records, joined by “and”; a condition that tells them apart may be missing. Identical values can stand only once. Toxic doses and inconclusive results are not listed.

For the test, the system named is BDF1 mice, P388 leukemia ip, median survival T/C. Briefly: NCI In Vivo Anticancer Drug Screen. Data for tumor model P388 Leukemia (intraperitoneal) in B6D2F1 (BDF1) mice. Particulars: endpoint: median survival time, higher = longer survival. A digest of the protocol: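 Survival ratio, drug arm over vehicle arm, in mice with a transplanted tumour.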
[1] abbreviates: dose: 50.0 mg/kg/injection, schedule: Q01DX009 (ip), vehicle: saline with Tween-80.
[2] abbreviates: dose: 100.0 mg/kg/injection, schedule: Q01DX009 (ip), vehicle: saline with Tween-80.
Setting [3] is: dose: 100.0 mg/kg/injection, schedule: Q04DX003 (ip), vehicle: saline with Tween-80.
Setting [4] is: dose: 200.0 mg/kg/injection, schedule: Q04DX003 (ip), vehicle: saline with Tween-80.
Where [5] appears, read: dose: 400.0 mg/kg/injection, schedule: Q04DX003 (ip), vehicle: saline with Tween-80.
[6] abbreviates: dose: 50.0 mg/kg/injection, schedule: Q01DX009 (ip), vehicle: saline.
Where [7] appears, read: dose: 100.0 mg/kg/injection, schedule: Q01DX009 (ip), vehicle: saline.
Where [8] appears, read: dose: 200.0 mg/kg/injection, schedule: Q01DX009 (ip), vehicle: saline with Tween-80.
[9] abbreviates: dose: 100.0 mg/kg/injection, schedule: Q04DX003 (ip), vehicle: Klucel (hydroxypropylcellulose) (HPC).
Setting [10] is: dose: 200.0 mg/kg/injection, schedule: Q04DX003 (ip), vehicle: Klucel (hydroxypropylcellulose) (HPC).
Setting [11] is: dose: 400.0 mg/kg/injection, schedule: Q04DX003 (ip), vehicle: Klucel (hydroxypropylcellulose) (HPC).
Setting [12] is: dose: 200.0 mg/kg/injection, schedule: Q01DX009 (ip), vehicle: saline.
Where [13] appears, read: dose: 400.0 mg/kg/injection, schedule: Q01DX009 (ip), vehicle: saline.
Setting [14] is: dose: 75.0 mg/kg/injection, schedule: Q04DX003 (ip), vehicle: Klucel (hydroxypropylcellulose) (HPC).
The mark [15] stands for this setting: dose: 150.0 mg/kg/injection, schedule: Q04DX003 (ip), vehicle: Klucel (hydroxypropylcellulose) (HPC).
Where [16] appears, read: dose: 100.0 mg/kg/injection, schedule: Q01DX001 (ip), vehicle: Klucel (hydroxypropylcellulose) (HPC).

Consider `CC(=O)[C@H]1CC[C@H]2[C@@H]3CCC4=CC(=O)[C@H](C)C[C@]4(C)[C@@]3(F)[C@@H](O)C[C@]12C`, for which the T/C was 100 % of control (dose: 25.0 mg/kg/injection, schedule: Q01DX009 (ip), vehicle: saline with Tween-80); 100 % of control under setting [1]; 95 % of control and 104 % of control under setting [2]; 100 % of control under setting [3]; 100 % of control under setting [4]; 90 % of control under setting [5].
For the compound `CCCCN=C(N)N=C(N)N`, the T/C is, setting by setting: under setting [6], 105 % of control; under setting [7], 108 % of control.
Consider `CCOC(=O)CCC1(CCC(=O)OCC)OCCO1`, for which the T/C under setting [2] is 91 % of control; the T/C (dose: 100.0 mg/kg/injection, schedule: Q04DX003 (ip), vehicle: saline) is 95 % of control; the T/C under setting [8] is 95 % of control; the T/C (dose: 200.0 mg/kg/injection, schedule: Q04DX003 (ip), vehicle: saline) was 109 % of control; the T/C (dose: 400.0 mg/kg/injection, schedule: Q01DX009 (ip), vehicle: saline with Tween-80) was 108 % of control; the T/C (dose: 400.0 mg/kg/injection, schedule: Q04DX003 (ip), vehicle: saline) was 109 % of control.
In the case of `C=CC12COC(=O)C(=C)C1C(O)C(C(=C)C(=O)OC)C(O)C2` (stereo not drawn), the T/C reads like this: (dose: 0.5 mg/kg/injection, schedule: Q01DX010 (ip), vehicle: steriod suspending solution) 100 % of control; (dose: 1.0 mg/kg/injection, schedule: Q01DX010 (ip), vehicle: steriod suspending solution) 109 % of control; (dose: 2.0 mg/kg/injection, schedule: Q01DX010 (ip), vehicle: steriod suspending solution) 100 % of control; (dose: 4.0 mg/kg/injection, schedule: Q01DX010 (ip), vehicle: steriod suspending solution) 122 % of control; (dose: 10.0 mg/kg/injection, schedule: Q01DX010 (ip), vehicle: steriod suspending solution) 109 % of control.
For the compound `COc1cc2c(cc1OC)/C(=N\O)CCCC2`, the T/C is 119 % of control under setting [1]; 114 % of control under setting [2]; 100 % of control under setting [9]; 90 % of control under setting [8]; 100 % of control under setting [10]; 100 % of control under setting [11].
Regarding `O=c1[nH]cnc2c1ncn2C1OC(CO)C(O)C1O` (stereo not drawn), the T/C under setting [7] was 99 % of control, the T/C under setting [12] is 100 % of control and the T/C under setting [13] is 103 % of control.
Take `S=C(Nc1ccccc1)NC1CCCCCC1`: the T/C is 90 % of control under setting [14]; 100 % of control under setting [15]; 110 % of control (dose: 300.0 mg/kg/injection, schedule: Q04DX003 (ip), vehicle: Klucel (hydroxypropylcellulose) (HPC)).
As to `Cn1c(CC(O)(C(F)(F)Cl)C(F)(F)Cl)cc(=O)n1-c1ccccc1`, the T/C was 100 % of control under setting [3] and 100 % of control under setting [4].
For the compound `O=C(O)CCCOc1ccc(Cl)cc1Cl`, the T/C was 100 % of control under setting [7], 104 % of control under setting [12] and 95 % of control under setting [13].
`CC(=O)C1=C(O)C2C3c4c[nH]c5cccc(c45)CC3C(C)(C)N2C1=O` (stereo not drawn): the T/C reads like this: (dose: 0.5 mg/kg/injection, schedule: Q01DX010 (ip), vehicle: saline) 100 % of control; (dose: 1.0 mg/kg/injection, schedule: Q01DX010 (ip), vehicle: saline) 100 % of control; (dose: 2.0 mg/kg/injection, schedule: Q01DX010 (ip), vehicle: saline) 100 % of control; (dose: 4.0 mg/kg/injection, schedule: Q01DX010 (ip), vehicle: saline) 110 % of control.
With `c1ccc(C2=C(c3ccccc3)c3cccc4cccc2c34)cc1`, the T/C by setting is: under setting [16], 95 % of control and 110 % of control; under setting [9], 115 % of control; (dose: 200.0 mg/kg/injection, schedule: Q01DX001 (ip), vehicle: Klucel (hydroxypropylcellulose) (HPC)) 105 % of control; under setting [10], 120 % of control; (dose: 400.0 mg/kg/injection, schedule: Q01DX001 (ip), vehicle: Klucel (hydroxypropylcellulose) (HPC)) 95 % of control and 105 % of control; under setting [11], 110 % of control.
In the case of `Cc1c(Cl)cccc1NC(=O)Nc1ccccc1`, the T/C is 103 % of control (dose: 100.0 mg/kg/injection, schedule: Q04DX003 (ip), vehicle: DMSO); 100 % of control (dose: 200.0 mg/kg/injection, schedule: Q04DX003 (ip), vehicle: DMSO); 107 % of control (dose: 400.0 mg/kg/injection, schedule: Q04DX003 (ip), vehicle: DMSO).
On to `C[S+](C)N(c1ccccc1)C(C)(C)C`, for which the T/C is, setting by setting: (dose: 12.5 mg/kg/injection, schedule: Q04DX003 (ip), vehicle: saline with Tween-80) 99 % of control; (dose: 25.0 mg/kg/injection, schedule: Q04DX003 (ip), vehicle: saline with Tween-80) 104 % of control; (dose: 50.0 mg/kg/injection, schedule: Q04DX003 (ip), vehicle: saline with Tween-80) 89 % of control.
On to `C1CC[N-]CC1.C1CC[N-]CC1.C1CC[N-]CC1.C1CC[N-]CC1.CC(=N\[O-])/C(C)=N/O.CC(=N\[O-])/C(C)=N/O.[Cl-].[Cl-].[Cl][Rh][Cl].[Rh+3]`, for which the T/C by setting is: under setting [6], 98 % of control; under setting [7], 86 % of control; under setting [12], 86 % of control; under setting [13], 95 % of control.
On to `C=CC(=O)NC1CCCCC1`, for which the T/C reads like this: (dose: 50.0 mg/kg/injection, schedule: Q04DX003 (ip), vehicle: Klucel (hydroxypropylcellulose) (HPC)) 90 % of control; under setting [14], 104 % of control; under setting [15], 104 % of control.
As for `CC1=CC=CC2=NC(=O)CCN12`, the T/C by setting is: under setting [1], 94 % of control; under setting [2], 94 % of control; under setting [8], 100 % of control.
Turning to `CCCNC(=O)Nc1cc(C(F)(F)F)ccc1Cl`, the T/C was 100 % of control under setting [3], 100 % of control under setting [4] and 100 % of control under setting [5].
As to `CCOC(=O)Nc1cc2c(c(N)n1)N=C(CN(C)c1ccccc1)CN2`, the T/C reads like this: (dose: 12.5 mg/kg/injection, schedule: Q01DX001 (ip), vehicle: Klucel (hydroxypropylcellulose) (HPC)) 123 % of control; (dose: 50.0 mg/kg/injection, schedule: Q01DX001 (ip), vehicle: Klucel (hydroxypropylcellulose) (HPC)) 164 % of control; under setting [16], 211 % of control.
For `O=C1c2ccccc2S(=O)(=O)N1CCCBr`, the T/C was 95 % of control (dose: 12.5 mg/kg/injection, schedule: Q01DX009 (ip), vehicle: Klucel (hydroxypropylcellulose) (HPC)); 110 % of control (dose: 25.0 mg/kg/injection, schedule: Q01DX009 (ip), vehicle: Klucel (hydroxypropylcellulose) (HPC)); 105 % of control (dose: 50.0 mg/kg/injection, schedule: Q01DX009 (ip), vehicle: Klucel (hydroxypropylcellulose) (HPC)); 95 % of control under setting [9]; 95 % of control under setting [10]; 95 % of control under setting [11].
As to `CN(CO)c1nc(N(C)CO)nc(N(C)CO)n1`, the T/C runs as follows: (dose: 12.5 mg/kg/injection, schedule: Q01DX005 (ip), vehicle: saline) 104 % of control; (dose: 25.0 mg/kg/injection, schedule: Q01DX005 (ip), vehicle: saline) 113 % of control; (dose: 100.0 mg/kg/injection, schedule: Q01DX005 (ip), vehicle: saline) 155 % of control.
For `CC(C)(C1=CC=CS1(=O)=O)C1=CC=C(C(C)(C)C2=CC=CS2(=O)=O)S1(=O)=O`, the T/C runs as follows: (dose: 100.0 mg/kg/injection, schedule: Q01DX001 (ip), vehicle: saline with Tween-80) 102 % of control; (dose: 200.0 mg/kg/injection, schedule: Q01DX001 (ip), vehicle: saline with Tween-80) 94 % of control; (dose: 400.0 mg/kg/injection, schedule: Q01DX001 (ip), vehicle: saline with Tween-80) 106 % of control.
As to `O=C1C=C(SCCO)C(=O)c2ccccc21`, the T/C reads like this: (dose: 0.37 mg/kg/injection, schedule: Q04DX003 (ip), vehicle: saline) 100 % of control; (dose: 0.75 mg/kg/injection, schedule: Q04DX003 (ip), vehicle: saline) 104 % of control; (dose: 1.5 mg/kg/injection, schedule: Q04DX003 (ip), vehicle: saline) 109 % of control.
